Data on 13 compounds can be found in ChEMBL document CHEMBL4627369, “Synthesis of novel of 2, 5-disubstituted 1, 3, 4- oxadiazole derivatives and their in vitro anti-inflammatory, anti-oxidant evaluation, and molecular docking study” (Bioorg Med Chem Lett, 2020).

A short description of test [1]: Antioxidant activity assessed as DPPH radical scavenging activity. Format: functional. Background: DPPH is a stable violet radical that fades when it is reduced.
Test [2] in a line: Antioxidant activity assessed as nitric oxide radical scavenging activity. Format: functional.

Broadly, the IC50 is the concentration at which inhibition is half-maximal.

Regarding `Fc1ccc2c(c1)CCC(c1nnc(-c3cn(Cc4c(F)cccc4F)nn3)o1)O2` (stereo unspecified), the figures for the IC50 in test [1] and in test [2] were 23.1 µM and 88 µM, respectively.
On to `Fc1ccc2c(c1)CCC(c1nnc(C3CCc4cc(F)ccc4O3)o1)O2` (stereo unspecified), for which the IC50 stood at 29 µM in test [1] and 87 µM in test [2].
For `O=c1cc(-c2nnc(C3CCc4cc(F)ccc4O3)o2)oc2ccc(F)cc12` (stereo unspecified), in that order: 34.9 µM and 73.9 µM.
For `Fc1ccc2c(c1)CCC(c1nnc(-c3ccccc3Cl)o1)O2` (stereo unspecified), in that order: 40.8 µM and 88 µM.
Turning to `Nc1ccc(-c2nnc(C3CCc4cc(F)ccc4O3)o2)cc1` (stereo unspecified), the IC50 in test [1] was 34.9 µM; in test [2], 89.1 µM.
As to `Fc1ccc2c(c1)CCC(c1nnc(-c3cnccn3)o1)O2` (stereo unspecified), the results for the IC50 in test [1] and in test [2] were 73.4 µM and 87 µM, respectively.
For `O=[N+]([O-])c1ccc(-c2nnc(C3CCc4cc(F)ccc4O3)o2)cc1` (stereo unspecified), in that order: 28.7 µM and 84.8 µM.
For the compound `Fc1ccc2c(c1)CCC(c1nnc(-c3ccccc3)o1)O2` (stereo unspecified), the IC50 came to 28.7 µM in test [1] and 85.9 µM in test [2].
As for `Fc1ccc2c(c1)CCC(c1nnc(-c3cc(F)c(F)c(F)c3F)o1)O2` (stereo unspecified), the IC50 in test [1] worked out at 29 µM; in test [2], 85.9 µM.
On to `COc1cc(-c2nnc(C3CCc4cc(F)ccc4O3)o2)cc(OC)c1OC` (stereo unspecified), for which the concentration for half-maximal inhibition (IC50) in test [1] came out at 43.2 µM; in test [2] it was 87 µM.
`Fc1ccc2c(c1)CCC(c1nnc(-c3cccc(Cl)c3)o1)O2` (stereo unspecified): the IC50 in test [1] came out at 23.1 µM; in test [2], 84.8 µM.
The like results for `O=C1O[C@H]([C@@H](O)CO)C(O)=C1O` [ASCORBIC ACID] were, in that order, 44.2 µM and 42.6 µM.
Turning to `Fc1ccc2c(c1)CCC(c1nnc(-c3ccc(Cl)cc3)o1)O2` (stereo unspecified), the IC50 is 17.2 µM in test [1] and 85.9 µM in test [2].
